Test results from patent US7741327B2 (Hoffmann-La Roche Inc., priority 2008, dated 2010).

target: T1, Recombinant human liver GK1 (GST-GK) (Homo sapiens, UniProt P35557); assay: In vitro glucokinase activity (G6PDH-coupled NADH assay); type: biochemical; conditions: 30° C., 5 mM D-glucose, 10% DMSO
T1 construct: made in house; host or cells: E. coli
T1 sequence (P35557 1-466 isoform P35557-2): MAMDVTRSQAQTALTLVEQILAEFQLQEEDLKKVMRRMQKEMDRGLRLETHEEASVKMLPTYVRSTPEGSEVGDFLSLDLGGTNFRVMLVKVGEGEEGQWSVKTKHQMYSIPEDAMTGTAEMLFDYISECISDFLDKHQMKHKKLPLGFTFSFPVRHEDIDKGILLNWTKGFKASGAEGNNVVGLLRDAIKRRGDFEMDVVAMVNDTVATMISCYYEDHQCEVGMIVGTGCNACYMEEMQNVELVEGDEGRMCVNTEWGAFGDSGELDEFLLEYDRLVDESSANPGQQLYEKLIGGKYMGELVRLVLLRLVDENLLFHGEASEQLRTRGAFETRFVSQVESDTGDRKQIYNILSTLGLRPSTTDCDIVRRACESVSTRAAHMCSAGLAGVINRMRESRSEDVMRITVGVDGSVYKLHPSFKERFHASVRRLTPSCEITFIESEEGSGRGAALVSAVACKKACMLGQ
Summary of the method: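 GST-tagged human liver GK1 from E. coli, assayed at 30° C in 25 mM Hepes pH 7.1 with 5 mM D-glucose, 1 mM ATP, 1.8 mM NAD and G6PDH coupling, 10% DMSO final; reaction started with enzyme after 10 min preincubation. NADH formation followed at OD340; SC1.5 is activator concentration giving 50% increase over DMSO control rate.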

| SMILES | SC1.5 (concentration of activator that produced a 50% increase in the activity of GK) [µM] |
| --- | --- |
| CC(C)(O)Cn1ccc(NC(=O)[C@H](CC2CCCCC2)N2CC(Oc3cccc(Cl)c3)=CC2=O)n1 [Example 207, (S)-2-[4-(3-chloro-phenoxy)-2-oxo-2,5-dihydro-pyrrol-1-yl]-3-cyclohexyl-N-[1-(2-hydroxy-2-methyl-propyl)-1H-pyrazol-3-yl]-propionamide] | 0.018 |
| CNC(=O)NC(=O)C(CC1CCCCC1)N1CC(Oc2cccc(OC)c2Cl)=CC1=O (centres unmarked) [Example 58, 1-{2-[4-(2-Chloro-3-methoxy-phenoxy)-2-oxo-2,5-dihydro-pyrrol-1-yl]-3-cyclohexyl-propionyl}-3-methyl-urea] | 1.597 |
| CC(C)C[C@@H](C(=O)Nc1ccn(C[C@H](O)CO)n1)N1CC(Oc2ccccc2Cl)=CC1=O [Example 175, (S)-2-[4-(2-Chloro-phenoxy)-2-oxo-2,5-dihydro-pyrrol-1-yl]-4-methyl-pentanoic acid [1-((S)-2,3-dihyrxy-propyl)-1H-pyrazol-3-yl]-amide] | 0.138 |
| CC(C)(O)Cn1ccc(NC(=O)[C@H](CC2CCCCC2)N2CC(Oc3ccccc3C(C)(C)C)=CC2=O)n1 [Example 197, (S)-2-[4-(2-t-butyl-phenoxy)-2-oxo-2,5-dihydro-pyrrol-1-yl]-3-cyclohexyl-N-[1-(2-hydroxy-2-methyl-propyl)-1H-pyrazol-3-yl]-propionamide] | 0.892 |
| CC(C)(O)Cn1ccc(NC(=O)[C@H](CC2CCCCC2)N2CC(Oc3ccccc3)=CC2=O)n1 [Example 213, (S)-3-cyclohexyl-N-[1-(2-hydroxy-2-methyl-propyl)-1H-pyrazol-3-yl]-2-(2-oxo-4-phenoxy-2,5-dihydro-pyrrol-1-yl)-propionamide] | 0.028 |
| CC(C)C[C@@H](C(=O)Nc1ccn(C[C@H]2COC(C)(C)O2)n1)N1CC(Oc2ccccc2Cl)=CC1=O [Example 174, (S)-2-[4-(2-Chloro-phenoxy)-2-oxo-2,5-dihydro-pyrrol-1-yl]-4-methyl-pentanoic acid [1-((S)-2,2-dimethyl-[1,3]dioxolan-4-yl-methyl)-1H-pyrazol-3-yl]-amide] | 0.133 |
| COC1=CC(=O)N([C@@H](CC2CCCC2)C(=O)Nc2nc3ccccc3s2)C1 [Example 3, (S)-N-Benzothiazol-2-yl-3-cyclopentyl-2-(4-methoxy-2-oxo-2,5-dihydro-pyrrol-1-yl)-propionamide] | > 30 |
| O=C(Nc1ccn(C[C@@H](O)CO)n1)[C@@H](CC1CCC1)N1CC(Oc2ccccc2Cl)=CC1=O [Example 177, (R)-2-[4-(2-chloro-phenoxy)-2-oxo-2,5-dihydro-pyrrol-1-yl]-3-cyclobutyl-N-[1-((R)-2,3-dihydroxy-propyl)-1H-pyrazol-3-yl]-propionamide] | 4.725 |
| CCOc1ccc(F)c(OC2=CC(=O)N([C@@H](CC(C)C)C(=O)Nc3cnc([C@H](O)CO)cn3)C2)c1F [Example 153, (S)-2-[4-(3-Ethoxy-2,6-difluoro-phenoxy)-2-oxo-2,5-dihydro-pyrrol-1-yl]-4-methyl-pentanoic acid [5-((S)-1,2-dihydroxy-ethyl)-pyrazin-2-yl]-amide] | 0.207 |
| COC1=CC(=O)N([C@@H](CC2CCCCC2)C(=O)Nc2ccn(CC(C)(C)O)n2)C1 [Example 56, (S)-3-Cyclohexyl-N-[1-(2-hydroxy-2-methyl-propyl)-1H-pyrazol-3-yl]-2-(4-methoxy-2-oxo-2,5-dihydro-pyrrol-1-yl)-propionamide] | 4.985 |
| Cc1nc2c(OC3=CC(=O)N([C@@H](CC(C)C)C(=O)Nc4ccn(CC(C)(C)O)n4)C3)cccc2o1 [Example 243, (S)-4-Methyl-2-[4-(2-methyl-benzooxazol-4-yloxy)-2-oxo-2,5-dihydro-pyrrol-1-yl]-pentanoic acid [1-(2-hydroxy-2-methyl-propyl)-1H-pyrazol-3-yl]-amide] | 7.56 |
| COC1=CC(=O)N([C@@H](CC2CCCC2)C(=O)Nc2ccn(CCNC(=O)OC(C)(C)C)n2)C1 [Example 7, (2-{3-[(S)-3-Cyclopentyl-2-(4-methoxy-2-oxo-2,5-dihydro-pyrrol-1-yl)-propionylamino]-pyrazol-1-yl}-ethyl)-carbamic acid t-butylester] | 13.732 |
| CC(C)NC1=CC(=O)N([C@@H](CC2CCCCC2)C(=O)Nc2ccn(CC(C)(C)O)n2)C1 [Example 232, (S)-3-cyclohexyl-N-[1-(2-hydroxy-2-methyl-propyl)-1H-pyrazol-3-yl]-2-(4-isopropylamino-2-oxo-2,5-dihydro-pyrrol-1-yl)-propionamide] | 12.232 |
| CCCOC1=CC(=O)N([C@@H](CC2CCCCC2)C(=O)Nc2ccn(CC(C)(C)O)n2)C1 [Example 24, (S)-3-Cyclohexyl-N-[1-(2-hydroxy-2-methyl-propyl)-1H-pyrazol-3-yl]-2-(2-oxo-4-propoxy-2,5-dihydro-pyrrol-1-yl)-propionamide] | 5.251 |
| CC(C)(C)CCC(C(=O)Nc1ccn(C[C@@H](O)CO)n1)N1CC(Oc2ccccc2Cl)=CC1=O (stereo partly drawn) [Example 227, 2-[4-(2-Chloro-phenoxy)-2-oxo-2,5-dihydro-pyrrol-1-yl]-5,5-dimethyl-hexanoic acid [1-((R)-2,3-dihydroxy-propyl)-1H-pyrazol-3-yl]amide] | 16.668 |
| CC(C)C[C@@H](C(=O)Nc1ccn(C[C@@H](O)CO)n1)N1CC(Oc2c(F)ccc(OC(C)C)c2F)=CC1=O [Example 134, (S)-2-[4-(2,6-Difluoro-3-isopropoxy-phenoxy)-2-oxo-2,5-dihydro-pyrrol-1-yl]-4-methyl-pentanoic acid [1-((R)-2,3-dihydroxy-propyl)-1H-pyrazol-3-yl]-amide] | 0.069 |
| CC(C)(O)Cn1ccc(NC(=O)[C@H](CC2CCCCC2)N2CC(Oc3cccc(F)c3F)=CC2=O)n1 [Example 200, (S)-3-cyclohexyl-2-[4-(2,3-difluoro-phenoxy)-2-oxo-2,5-dihydro-pyrrol-1-yl]-N-[1-(2-hydroxy-2-methyl-propyl)-1H-pyrazol-3-yl]-propionamide] | 0.011 |
| Cc1ccc(OC2=CC(=O)N([C@@H](CC3CCCCC3)C(=O)Nc3ccn(CC(C)(C)O)n3)C2)cn1 [Example 212, (S)-3-cyclohexyl-N-[1-(2-hydroxy-2-methyl-propyl)-1H-pyrazol-3-yl]-2-[4-(6-methyl-pyridin-3-yloxy)-2-oxo-2,5-dihydro-pyrrol-1-yl]-propionamide] | 0.054 |
| COC(=O)c1ccc(NC(=O)[C@H](CC2CCCCC2)N2CC(Oc3c(F)cccc3F)=CC2=O)nc1 [Example 39, 6-{(S)-3-Cyclohexyl-2-[4-(2,6-difluoro-phenoxy)-2-oxo-2,5-dihydro-pyrrol-1-yl]-propionylamino}-nicotinic acid methyl ester] | 0.025 |

same assay, conditions: at 30 μM test compound

| SMILES | fold act. @ 30 μM [fold] |
| --- | --- |
| COC1=CC(=O)N([C@@H](CC2CCCC2)C(=O)Nc2nc3ccccc3s2)C1 [Example 3, (S)-N-Benzothiazol-2-yl-3-cyclopentyl-2-(4-methoxy-2-oxo-2,5-dihydro-pyrrol-1-yl)-propionamide] | 1.3 |
